Data from patent publication US20250327770A1, “Protein-Derived Peptide Multiplexes for Biomimetic Detection of VOC Profiles” (University of Washington, priority 2022, published 2025).
“Also recorded” adds a separate entry of the source.

Columns and labels:
[1] = QCM VOC binding, octanal; settings: wet N2 gas stream
Method: (§1) VOC binding validation by QCM utilized chimeric molecular constructs tethered to a substrate in a VOC-doped gas stream. Gold QCM substrates (Qsense, Phoenix, AZ, USA) were coated with 10 nm thick carbon film by evaporation (SPI, West Chester, PA, USA). 10 μL of 1 μM aqueous peptide was deposited and incubated for 1 hour at room temperature, and then the sample was dried in a nitrogen gas stream. A KSV model Z500 QCM (Qsense, Phoenix, AZ, USA) was used to measure VOC binding to bare carbon (control), and peptide-coated substrates. Humidified nitrogen was measured as the baseline, then VOC was introduced by bubbling nitrogen through the VOC/deionized water mixture. The difference in resonant frequency between wet nitrogen and VOC mixture was reported, in which lower frequency indicated an increase in mass on the substrate due to VOC molecules binding to the surface.
(§2) Each of the six synthesized peptides was then tested against eight VOCs. The VOCs were chosen to include the targeted VOCs for all synthesized chimeric molecular constructs, plus ethanol as a common non-target. […] VOC adsorption caused damping of the QCM sensor—therefore, a higher affinity surface would produce a greater reduction in resonant frequency upon exposure to the gas stream. The concentration of the target VOC for each peptide was 20 μM, 10× lower than non-targets at 200 μM.

[2] = Peptide-sensitized CNT-FET sensor response to ethyl butyrate; settings: gate voltage −1 V
Method: Sensors were placed in a box chamber that allowed gas flow into and out of the enclosure while allowing micromanipulator probes to be positioned on the sensor chip contact pads. Gas flow impinged directly above the sensor chip with a continuous flow rate of 50-60 SCCM as controlled by a flowmeter (Matheson, model FM-1050, Montgomeryville, PA, USA).
After placing the sensor chip into the gas chamber, a nitrogen purge of 2-3 minutes at 4 to 5 PSI in the gas line was performed in order to flush out ambient air trapped within the box enclosure. Transfer curve measurements were performed to determine sensor characteristics. The chip was then equilibrated in humidified N2 (“wet N2”) for 30-60 min by flowing in nitrogen gas that has passed through a gas bubbler filled with water. Sensor measurements were taken at this point to establish sensor baseline signal.
For peptide sensitization of the CNT sensing channel, the chip was removed from the gas chamber and dropcasted with 1.5 μL 100 μM peptide diluted in di-H2O. Peptide solution was pipetted directly onto the CNT sensing regions of the multiplexed chip and incubated for 60 minutes in a humidified environment to prevent evaporation. Devices were then spin dried by centrifugal force at 2,000 g. Sensor measurements were taken again after replacing the chip back into the gas chamber, purging with N2, and equilibrating in wet N2 for 30-60 min. Finally, the peptide-functionalized chip was exposed to humidified ethyl butyrate for 60-90 min before sensor measurements were taken.
Transfer curves were generated for each of the following experimental conditions: 1) Bare CNT sensors (i.e., non-functionalized) under non-humidified N2 gas exposure; 2) non-functionalized sensors under humidified N2 gas exposure; 3) peptide-functionalized sensors under humidified N2 gas exposure; and 4) peptide-functionalized sensors exposed to ethyl butyrate in humidified N2 carrier gas. Signal response was based on normalized source-drain current values obtained from the reverse sweep of the transfer curve at a gate potential of −1 V (Vg=−1 V), which was determined to be within the subthreshold voltage region for ethyl butyrate-exposed, peptide-functionalized sensors. […] Signal responses were normalized to their corresponding width-to-length CNT sensing channel dimensions. Mean signal response for each condition was calculated from a total of 9 to 13 technical replicates measured across two independent experiments (N=2).
Two VOC and C-binding peptides were used in order to functionalize CNT-FET devices and test their sensitivity to ethyl butyrate:MmedPep1-GrBP and BhorPep1-GrBP, which were predicted to bind to ethyl butyrate and a range of aldehydes and alkanes, respectively. […] However, the effect was reversed under ethyl butyrate exposure for CNT channels functionalized with MmedPep1-GrBP (FIG. 7B). Specifically, upon exposure to 378 mM ethyl butyrate solution (5% v/v in H2O), MmedPep1-GrBP-sensitized CNT-FET sensors measured 1.21±0.43 μA of current, compared to 0.20±0.9 μA for the aldehyde-sensitive BhorPep1-GrBP (p<0.001), as shown in FIG. 7C.

[3] = QCM VOC binding, nonanal; settings: wet N2 gas stream
Method: as §1, §2

[4] = SPR adsorption of peptide onto bare gold; format: binding; settings: 500 nM peptide concentration
Method: (§3) SPR (GE Healthcare, Biacore T200) was performed to validate specific adsorption of peptides onto a carbon substrate. Bare gold and carbon- and poly-L-lysine-functionalized substrates were used. Substrate fabrication used e-beam evaporation (CHA Industries, Solution Process Development System) of titanium (3-nm thick layer) then gold (47-nm thick layer) onto 1-cm^2 optical quality glass. A 20-nm thick carbon layer was sputtered (Kurt J. Lesker Company, Lab 18 Sputter System) onto the fabricated gold substrates at a rate of 10 Å per minute, and poly-L-lysine coatings were drop-cast incubated with 0.1% v/v poly-L-lysine for 30 minutes and rinsed with di-H2O, then air dried. A single-cycle kinetics curve was generated by sequential injection of MmedPep1-GBP peptide at 2-fold increasing concentrations up to 500 nM in buffer (100 mM KCl, 10 mM K+ phosphate). An injection flow rate of 30 μL/min and a temperature of 25° C. were used. Response values were plotted and fitted to a Langmuir isotherm curve by minimizing the sum of square differences between the dataset and the isotherm model.

[5] = SPR adsorption of peptide onto carbon substrate; format: binding
Method: as §3

[6] = SPR adsorption of peptide onto poly-L-lysine substrate; format: binding; settings: 500 nM peptide concentration
Method: as §3

[7] = QCM VOC binding, ethyl butyrate; settings: wet N2 gas stream
Method: as §1, §2

[8] = QCM VOC binding, ethanol; settings: wet N2 gas stream
Method: as §1, §2

[9] = 378 mM ethyl butyrate solution (5% v/v in H2O), Vsd=−5 V

GIVLLATYEKIISIYFIFFGGGYSSY [BhorPep1-GrBP, chimeric construct from BhorOBPm2; targets aldehydes and alkanes]
octanal affinity (QCM) [1]: notable
source-drain current upon ethyl butyrate exposure [2, 9]: 0.20±0.9 μA
source-drain current upon ethyl butyrate exposure ([2]; Vds=−3 V): 0.038±0.020 μA
CNT-FET signal response to ethyl butyrate exposure (in words) [2]: respond weakly

SHFVGGGYSSY [HcunPep1-GrBP, chimeric construct from HcunPBP3; target nonanal]
nonanal affinity (QCM) [3]: notable

VGARNGGGYSSY [MmedPep1-GrBP, target ethyl butyrate]
SPR signal [4]: 18.4±1.7 RU
SPR signal ([5]; 500 nM peptide concentration, carbon-coated gold surface): 158.4±44.1 RU
substrate preference of adsorption (carbon vs gold, poly-L-lysine) ([5]; SPR): specific preference for the carbon substrate; also recorded: specific absorption
SPR signal [6]: 6.5±2.9 RU
source-drain current upon ethyl butyrate exposure [2, 9]: 1.21±0.43 μA
source-drain current upon ethyl butyrate exposure ([2]; Vds=−3 V): 0.542±0.721 μA
CNT-FET signal response to ethyl butyrate exposure (in words) [2]: robust signal response

VGGGAGRGNGGGYSSY [MmedPep1s-GrBP, glycine spacer variant of MmedPep1-GrBP; target ethyl butyrate]
ethyl butyrate binding preference (QCM) [7]: strongly selective
affinity for ethanol (QCM) [8]: reduced affinity
